In test [1] the test system is MCF-7 cells. Put plainly: Histone Kla levels in MCF-7 cells by immunoblot (pan anti-Kla). It is filed as cell-based, human. The procedure:
(§1) Intracellular lactate (a and d) and histone Kla levels (b and c) were measured from MCF-7 cells cultured in different glucose concentrations or different 2-DG concentrations in the presence of 25 mM glucose for 24 hours. Lactate was measured by a lactate colorimetric kit; n=3 biological replicates; statistical significance was determined using one-way ANOVA followed by Sidak's multiple comparisons test. Immunoblots was carried out using acid-extracted histone samples. The pan anti-Kla and anti-Kac immunoblots indicate molecular weights between 10 kD and 15 kD. e, Regulation of glycolysis and lactate production by diverse metabolic modulators. f, Intracellular lactate levels were measured in MCF-7 cells treated with indicated glycolysis modulators for 24 hours. N=3 biological replicates; statistical significance was determined using one-way ANOVA followed by Dunnett's multiple comparisons test. g-i, Immunoblots of acid extracted histones (Rotenone and DCA) or whole cell lysates (Oxamate) from MCF-7 cells in response to different glycolysis modulators. j, Intracellular lactate levels were measured in MCF-7 cells in response to hypoxia. N=4 biological replicates; statistical significance was determined using unpaired t test (Two-tailed). k, Immunoblots of acid extracted histones from MCF-7 cells under hypoxia (1% oxygen) for indicated time points. a, d, f, j, Graphs show mean with s.e.m. b, c, g, h, i, k, Data represent three independent experiments. […]

The subject of test [2] is MCF-7 cells. Put plainly: Intracellular lactate in MCF-7 cells (lactate colorimetric kit). It is filed as cell-based, human. The settings on record: 24 hours. The procedure:
as §1

The subject of test [3] is MCF-7 cells. Put plainly: Hypoxia-induced lactate production and histone Kla. The note with it: hypoxia (1% oxygen); cell line not given. It is filed as cell-based, human. The procedure:
as §1, with “hypoxia.” for “hypoxia. N=4 biological replicates; statistical significance was determined using unpaired t test (Two-tailed). k, Immunoblots of acid extracted histones from MCF-7 cells under hypoxia (1% oxygen) for indicated time points. a, d, f, j, Graphs show mean with s.e.m. b, c, g, h, i, k, Data represent three independent experiments.”

The test system of test [4] is MCF-7 cells. In words: U-13C6 glucose labeling followed by MS/MS of histone Kla and Kac in MCF-7 cells. It is filed as cell-based, human. The procedure:
The peptide samples were loaded onto a home-made capillary column (10 cm length×[…], 3 μm particle size, Dr. Maisch GmbH, Ammerbuch, Germany) connected to an EASY-nLC 1000 system (Thermo Fisher Scientific, Waltham, MA). Peptides were separated and eluted with a gradient of 2% to 90% HPLC buffer B (0.1% formic acid in acetonitrile, v/v) in buffer A (0.1% formic acid in water, v/v) at a flow rate of 200 nL/min over 60 min (34 min for coelution studies). The eluted peptides were then ionized and analyzed by a Q-Exactive mass spectrometer (Thermo Fisher Scientific, Waltham, MA). Full MS was acquired in the Orbitrap mass analyzer over the range m/z 300-1400 with a resolution of 70,000 at m/z 200. The 12 most intense ions with charge ≥2 were fragmented with normalized collision energy of 27 and tandem mass spectra were acquired with a mass resolution of 17500 at m/z 200.
MCF-7 cells were cultured in DMEM high glucose media plus 10% FBS. To be labeled by isotopic lactate, cells were treated with 10 mM of ^13C3 sodium L-lactate for 24 hours. To be labeled by isotopic glucose, cells were switched to DMEM No-Glucose media (Gibco) for 24 hours, followed by supplementation with 25 mM of U-^13C6 D-glucose and continued culturing for three passages. Histones were extracted, digested with trypsin, immunoprecipitated using a pan anti-Kla antibody, and analyzed by HPLC/MS/MS as described above.

The target in test [5] is T1, recombinant chromatin (p53- and p300-dependent) (Homo sapiens, UniProt Q09472).
T1 construct: made in house
Put plainly: Cell-free recombinant chromatin-templated histone modification and transcription assay. The note with it: acetyl-CoA replaced by L-lactyl-CoA. It is filed as biochemical. The procedure: To examine the potential activity of p300 as a histone Kla writer in cells, we over-expressed p300 in HEK293T cells and observed a modest increase in histone Kla levels. In contrast, p300 deletion in HCT116 and HEK293T cells decreased histone Kla levels.
Purification of recombinant proteins and chromatin assembly were performed as previously described (Tang et al., Cell 154, 297-310, doi:10.1016/j.cell.2013.06.027 (2013)). The chromatin-templated histone modification and transcription assays were as described previously (Tang et al., Cell 154, 297-310, doi:10.1016/j.cell.2013.06.027 (2013)), except that lactyl-CoA was used in place of acetyl-CoA and [α-32P] CTP was used in place of [α-32P]-UTP. The H3KR, H4KR, H2AKR, and H2BKR histone mutants were the same as previously described (Tang et al., Cell 154, 297-310, doi:10.1016/j.cell.2013.06.027 (2013)). Histone modifications were monitored by immunoblot and transcription products were monitored by autoradiography as described (Tang et al., Cell 154, 297-310, doi:10.1016/j.cell.2013.06.027 (2013)).

The next test deals with BMDMs. In words: U-13C6 glucose labeling of histone Kla and Kac in BMDMs during M1 polarization. It is filed as cell-based, mouse. From the text:
All animal use and experiments performed were approved by Institutional Animal Care and Use Committee (ACUP #72209) at the University of Chicago. Ldha^fl/fl mice (Jackson laboratory, 030112) and LysMcre mice (Jackson laboratory, 004781) were used to generate LysMcre^+/−Ldha^fl/fl and littermate control LysMcre^−/− Ldha^fl/fl mice. The following primers were used for genotyping: Ldha forward: […] (SEQ ID NO: 88) and Ldha reverse: […] (SEQ ID NO: 89). LysMcre: […] (SEQ ID NO: 90), LysM Common: […] (SEQ ID NO: 91) and LysM WT: […] (SEQ ID NO: 92). Macrophages were derived from bone marrow of 8-week male C57BL/6 mice following the published procedure. To induce an M1 or M2 phenotype, BMDM cells were stimulated with 5 ng/ml of LPS and 12 ng/ml of IFNγ or 20 ng/ml of interleukin 4, for 24 hours or the indicated time. To infect BMDM cells with bacteria, overnight cultures of E. coli, A. baumannii, or P. aeruginosa were diluted in RPMI-1640 and added to BMDM cells in 6-well plates at 2 and 20 multiplicity of infection. […]
The peptide samples were loaded onto a home-made capillary column (10 cm length×[…], 3 μm particle size, Dr. Maisch GmbH, Ammerbuch, Germany) connected to an EASY-nLC 1000 system (Thermo Fisher Scientific, Waltham, MA). […] The eluted peptides were then ionized and analyzed by a Q-Exactive mass spectrometer (Thermo Fisher Scientific, Waltham, MA). […]

In another test the test system is BMDM cells. In words: M1 polarization (LPS+IFNγ) of BMDM cells: lactate, histone Kla, gene expression, ChIP-qPCR. The format is cell-based, mouse. The procedure:
Intracellular lactate levels were measured using a lactate colorimetric kit (a) and global histone Kla levels were measured by immunoblots (b) 24 h-post M1 polarization. c, Gene expression were analyzed by RT-qPCR at indicated time points after M1 polarization. a-c, N=3 biological replicates. d, H3K18la occupancy was analyzed by ChIP-qPCR 24 h-post M1 polarization. Data represent three technical replicates from pooled samples. e-h, Exogeneous lactic acid (25 mM) was added to BMDM cells 4 h post-M1 polarization (LPS+IFNγ), and cells were collected at indicated time points post-M1 polarization for intracellular lactate measurement (e), histone Kla immunoblot analysis (f), gene expression analysis (g) and H3K18la occupancy analysis by ChIP-qPCR (h). e, N=3 biological replicates, f, Data represent three independent experiments. g, RPKM: Reads Per Kilobase of transcript per Million mapped reads (RPKM). N=4 biological replicates. h, Data represent three technical replicates from pooled samples. a, c, d, e, g, h, Graphs show mean with s.e.m; statistical significance was determined using Multiple t tests corrected using Holm-Sidak method (a, c, e, g).
All animal use and experiments performed were approved by Institutional Animal Care and Use Committee (ACUP #72209) at the University of Chicago. Ldha^fl/fl mice (Jackson laboratory, 030112) and LysMcre mice (Jackson laboratory, 004781) were used to generate LysMcre^+/−Ldha^fl/fl and littermate control LysMcre^−/− Ldha^fl/fl mice. The following primers were used for genotyping: Ldha forward: […] (SEQ ID NO: 88) and Ldha reverse: […] (SEQ ID NO: 89). LysMcre: […] (SEQ ID NO: 90), LysM Common: […] (SEQ ID NO: 91) and LysM WT: […] (SEQ ID NO: 92). Macrophages were derived from bone marrow of 8-week male C57BL/6 mice following the published procedure. To induce an M1 or M2 phenotype, BMDM cells were stimulated with 5 ng/ml of LPS and 12 ng/ml of IFNγ or 20 ng/ml of interleukin 4, for 24 hours or the indicated time. To infect BMDM cells with bacteria, overnight cultures of E. coli, A. baumannii, or P. aeruginosa were diluted in RPMI-1640 and added to BMDM cells in 6-well plates at 2 and 20 multiplicity of infection. A control plate was either infected with paraformaldehyde-killed bacteria or treated with 5 ng/mL lipopolysaccharide (LPS) in the absence of bacteria. The plates were centrifuged at 2170 rpm for 30 min to promote infection, followed by a 30 min incubation in a humidified incubator at 37° C. under 5% CO2. To kill extracellular bacteria, the medium overlying the confluent cell monolayer was replaced with fresh media containing gentamicin at 100 μg/mL and the plates were further incubated for 1 h. Following incubation, media were removed from infected cells and replaced with fresh media containing 25 μg/mL of gentamicin. For consistency, LPS-treated cells and cells infected with dead bacteria were also treated with gentamicin. Cells were cultured for 24 h before lysis. Allocation of BMDM cells into different treated groups were randomized and not blinded.
Total RNA was extracted from BMDM cells activated as indicated using a RNeasy Plus Mini Kit (74134, Qiagen, Hilden, Germany). Two to four micrograms of total RNA were used as starting material to prepare libraries using Illumina TruSeq Stranded mRNA Library Prep Kit Set A (RS-122-2101, Illumina, San Diego, CA). The libraries' size was selected by using the Agencourt AMPure XP beads (A63882, Beckman Coulter, Brea, CA), with average size of 400 bp. The libraries were sequenced using Illumina HiSeq 4000 (pair end 50 bp).
Native ChIP was carried out following the published protocol (Cuddapah et al., Cold Spring Harb Protoc 2009, pdb prot5237, doi:10.1101/pdb.prot5237 (2009)) with spiked-in for normalization purpose. Spike-in was carried out according to vendor protocols (#61686, Active motif, Carlsbad, CA). […]

The mark [6] stands for this setting: M1 polarization, exogenous lactate.
[7] abbreviates: exogenous lactic acid 25 mM added 4 h post-M1 polarization.

These results are taken from patent US12416639B2, “Reagents and methods for detecting protein lysine lactylation” (Jingjie PTM Biolab (Hangzhou) Co., Inc, priority 2018, dated 2025).

T1 sequence (Q09472 whole entry): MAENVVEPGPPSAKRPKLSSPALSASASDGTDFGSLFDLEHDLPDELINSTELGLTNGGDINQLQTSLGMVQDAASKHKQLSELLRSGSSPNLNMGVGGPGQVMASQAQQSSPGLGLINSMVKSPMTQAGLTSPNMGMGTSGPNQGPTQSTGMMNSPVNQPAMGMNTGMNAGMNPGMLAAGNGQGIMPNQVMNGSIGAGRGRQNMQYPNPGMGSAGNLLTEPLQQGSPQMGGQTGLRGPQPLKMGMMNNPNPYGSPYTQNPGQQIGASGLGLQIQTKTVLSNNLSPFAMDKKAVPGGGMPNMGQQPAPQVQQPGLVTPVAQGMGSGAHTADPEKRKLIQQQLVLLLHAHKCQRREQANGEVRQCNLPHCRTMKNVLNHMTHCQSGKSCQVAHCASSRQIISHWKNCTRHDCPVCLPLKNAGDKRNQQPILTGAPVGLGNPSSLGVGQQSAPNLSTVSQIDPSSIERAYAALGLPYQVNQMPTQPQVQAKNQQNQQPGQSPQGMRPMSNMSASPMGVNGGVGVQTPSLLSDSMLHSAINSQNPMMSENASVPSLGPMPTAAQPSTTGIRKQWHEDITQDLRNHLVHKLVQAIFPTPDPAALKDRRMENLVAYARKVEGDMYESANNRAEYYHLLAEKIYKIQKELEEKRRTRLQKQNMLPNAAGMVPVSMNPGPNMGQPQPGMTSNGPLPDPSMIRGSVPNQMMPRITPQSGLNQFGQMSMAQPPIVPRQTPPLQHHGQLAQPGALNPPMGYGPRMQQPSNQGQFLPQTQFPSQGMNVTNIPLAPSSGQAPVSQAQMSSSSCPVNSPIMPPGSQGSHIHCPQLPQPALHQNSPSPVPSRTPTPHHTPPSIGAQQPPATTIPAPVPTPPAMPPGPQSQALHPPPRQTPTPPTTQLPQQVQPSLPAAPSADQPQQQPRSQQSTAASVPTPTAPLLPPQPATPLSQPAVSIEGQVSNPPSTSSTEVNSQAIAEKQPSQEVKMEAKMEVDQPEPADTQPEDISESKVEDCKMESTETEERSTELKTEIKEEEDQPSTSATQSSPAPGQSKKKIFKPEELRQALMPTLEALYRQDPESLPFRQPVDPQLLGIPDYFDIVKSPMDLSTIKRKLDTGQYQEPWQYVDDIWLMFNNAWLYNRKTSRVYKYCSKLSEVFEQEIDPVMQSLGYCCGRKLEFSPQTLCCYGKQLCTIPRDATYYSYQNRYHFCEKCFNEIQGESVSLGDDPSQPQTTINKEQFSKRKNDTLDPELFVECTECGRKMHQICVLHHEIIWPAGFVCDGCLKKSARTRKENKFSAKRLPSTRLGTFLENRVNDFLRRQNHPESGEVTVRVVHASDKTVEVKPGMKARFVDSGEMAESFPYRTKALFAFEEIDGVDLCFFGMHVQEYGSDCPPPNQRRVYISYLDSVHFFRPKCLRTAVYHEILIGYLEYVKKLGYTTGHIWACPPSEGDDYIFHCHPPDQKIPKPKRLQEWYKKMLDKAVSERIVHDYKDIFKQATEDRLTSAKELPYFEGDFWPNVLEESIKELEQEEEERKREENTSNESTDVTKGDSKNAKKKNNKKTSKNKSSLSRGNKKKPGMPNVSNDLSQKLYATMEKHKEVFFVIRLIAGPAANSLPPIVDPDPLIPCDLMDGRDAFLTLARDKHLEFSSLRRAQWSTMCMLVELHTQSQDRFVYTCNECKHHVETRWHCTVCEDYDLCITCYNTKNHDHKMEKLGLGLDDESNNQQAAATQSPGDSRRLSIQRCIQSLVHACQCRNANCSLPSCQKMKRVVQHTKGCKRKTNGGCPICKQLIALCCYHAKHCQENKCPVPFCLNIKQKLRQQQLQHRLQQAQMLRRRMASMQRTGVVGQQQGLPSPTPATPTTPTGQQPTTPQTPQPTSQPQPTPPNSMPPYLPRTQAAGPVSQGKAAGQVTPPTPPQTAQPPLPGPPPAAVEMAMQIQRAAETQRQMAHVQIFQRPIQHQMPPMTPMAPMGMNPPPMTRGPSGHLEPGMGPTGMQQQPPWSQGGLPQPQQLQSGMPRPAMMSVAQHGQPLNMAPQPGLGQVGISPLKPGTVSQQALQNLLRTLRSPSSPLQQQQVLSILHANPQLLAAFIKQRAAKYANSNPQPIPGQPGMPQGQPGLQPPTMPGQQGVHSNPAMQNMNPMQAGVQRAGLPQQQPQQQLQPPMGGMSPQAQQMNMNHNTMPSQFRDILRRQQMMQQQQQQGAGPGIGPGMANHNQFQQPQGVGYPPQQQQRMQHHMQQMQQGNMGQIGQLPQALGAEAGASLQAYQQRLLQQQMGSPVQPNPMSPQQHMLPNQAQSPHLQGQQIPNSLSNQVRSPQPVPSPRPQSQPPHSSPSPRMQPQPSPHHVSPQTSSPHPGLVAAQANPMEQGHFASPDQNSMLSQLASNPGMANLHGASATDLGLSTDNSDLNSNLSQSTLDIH

For the compound `O=C([O-])C(Cl)Cl.[Na+]` [DCA, Sodium dichloroacetate], in the test with MCF-7 cells [1], the “histone Kla levels” value is listed as “lowered”. For the same compound, the “intracellular lactate levels / lactate production” value in the test on MCF-7 cells [2] is “decreased”. Further, in the test with MCF-7 cells [3], the “induction of histone Kla by hypoxia” value is reported as “attenuated” and the “induction of lactate production by hypoxia” value is given as “attenuated”. Further, in the test on MCF-7 cells [4], the “incorporation of 13C into histone Kac” value is recorded as “but not Kac was decreased” and the “incorporation of 13C into histone Kla” value was “decreased”.

For `C[C@H](O)C(=O)SCCNC(=O)CCNC(=O)[C@H](O)C(C)(C)COP(=O)(O)OP(=O)(O)OC[C@H]1O[C@@H](n2cnc3c(N)ncnc32)[C@H](O)[C@@H]1OP(=O)(O)O` [L-lactyl-CoA], the transcription result in test [5] (autoradiography) is recorded as “a corresponding effect on transcription”. In test [5] (immunoblot), the “H3 and H4 lactylation” value is “robust p53-dependent, p300-mediated H3 and H4 lactylation”.

For the compound GNE-140, in the test with BMDMs, the “13C incorporation into histone Kla” value is reported as “reduced”.

In the case of `O=CC[C@@H](O)[C@H](O)[C@H](O)CO` [2-DG, 2-deoxy-D-glucose], the “histone Kla levels” value with MCF-7 cells [1] is “decreased”. Moreover, in the test on MCF-7 cells [2], the “intracellular lactate levels / lactate production” value was “decreased”.

Regarding `C[C@H](O)C(=O)O` [lactate, L-(+)-lactic acid], in the test on BMDM cells (setting [6]), the “early pro-inflammatory gene expression” value was “did not affect” and the “expression of other M2-like genes, such as Vegfa” value was “enhanced”. Moreover, in the test with BMDM cells (setting [7]), the Arg1 expression entry is recorded as “induced” and the intracellular lactate entry is “increased”. Besides, the “histone Kla levels” value in the test with BMDM cells (exogenous lactic acid 25 mM added 4 h post-M1 polarization, immunoblot) was “increased”. In the test on BMDM cells (exogenous lactic acid 25 mM, H3K18la ChIP-qPCR), the “Kla levels at the Arg1 promoter” value was “induced”. In addition, the “histone Kla levels” value in the test on MCF-7 cells [1] is on record as “elevated in a dose-dependent fashion”.

Turning to `C=C(C)[C@H]1Cc2c(ccc3c2O[C@@H]2COc4cc(OC)c(OC)cc4[C@@H]2C3=O)O1` [rotenone], the “histone Kla levels” value in the test on MCF-7 cells [1] was “increased”. In the test with MCF-7 cells [2], the “intracellular lactate levels / lactate production” value is “increased”.
